Legend:
C. difficile strain 630 = assay type: in vivo, Golden Syrian hamsters; settings: PO twice per day; Example 5ae 50 mg/kg 7 days; vancomycin 5 mg/kg 5 days
[1] = tested on: C. difficile infection (CDI); settings: patients; Louie et al. 2011; cited from earlier work
C. difficile = assay type: in vivo, C57/BL6 mice

Question: Which body weight loss (C. difficile strain 630) does the source give for `CN[C@H](CC(C)C)C(=O)N[C@H]1C(=O)N[C@@H](CC(N)=O)C(=O)N[C@H]2C(=O)N[C@H]3C(=O)N[C@H](C(=O)N[C@H](C(=O)O)c4cc(O)cc(O)c4-c4cc3ccc4O)[C@H](O)c3ccc(c(Cl)c3)Oc3cc2cc(c3O[C@@H]2O[C@H](CO)[C@@H](O)[C@H](O)[C@H]2O[C@H]2C[C@](C)(N)[C@H](O)[C@H](C)O2)Oc2ccc(cc2Cl)[C@H]1O` [vancomycin, reference compound] here?
Answer: prevented any significant weight loss

Question: What about the CDI recurrence [1] of the same molecule?
Answer: 25%

Question: And the “weight loss, days 8-9 after infection” value (C. difficile; relapse model, PO, vancomycin 20 mg/kg once per day for five days)?
Answer: significant weight loss

Question: And the “weight loss during treatment (Days 1-5)” value (C. difficile; vancomycin 20 mg/kg oral, once per day for five days)?
Answer: prevented weight loss

From patent publication US10669242B2 (priority 2016, dated 2020)
